Reference: patent US20190134000A1, “COMPOUNDS TO PROMOTE NORMAL PROCESSING OF APP” (Buck Institute for Research on Aging, priority 2016, published 2019)
pIC50, pKd: −log10 of the molar value. “Also recorded” adds a separate entry of the source.

Assays:
[1] = target: CYP3A4 (Homo sapiens, UniProt P08684); experiment: CYP inhibition screen CYP3A4; format: in vitro ADME; conditions: for inhibition at 10 µM / inhibition at 30 µM: human
[2] = target: hERG receptor (Homo sapiens, UniProt Q12809); format: binding
[3] = system: muscarinic acetylcholine receptors; experiment: Muscarinic receptor binding in panel; conditions: panel binding test
[4] = system: sAPPα in SH-SY5Y cells; experiment: Primary screen, effect on sAPPα in SH-SY5Y cells (AlphaLISA); format: cell-based, human; conditions: ↑ increase
Source text: (§1) Compound C41 was initially identified by screening a library of compounds in a series of steps. First compounds were screened in a primary screen to determine the effect on sAPPα in SH-SYSY cells (see, e.g., FIG. 4). Compounds that elicited an increase in sAPPα of at least 10% were subjected to a secondary screen in CHO-7W cells for their effect on sAPPα and Aβ (see, e.g., FIG. 5).

[5] = target: α7 (Homo sapiens, UniProt P36544); experiment: Target binding α7
[6] = system: B254 mice; experiment: C41 lead confirmation in B254 mice; format: in vivo; conditions: 4 weeks oral 4 mkd
Source text: FIG. 15 illustrates the result of C41 lead confirmation in B254 mice. Panel A: Novel Location Recognition; Panel B: Novel Object Recognition; Panel C: sAPPα; Panel D: Aβ40; Panel E: Aβ42; Panel F: p-tau/tau.

[7] = S9 stability, dog; format: in vitro ADME
[8] = system: sAPPα, Aβ1-42 in CHO-7W cells; experiment: Secondary screen, sAPPα and Aβ in CHO-7W cells; format: cell-based
Source text: as §1

[9] = system: AD model mouse; experiment: In vivo study of C41 and F03 in an AD model mouse
Source text: Panel A: Novel object preference; Panel B: Novel location preference; Panel C: sAPPα.
Panel A: sAPPβ; Panel B: the sAPPα/sAPPβ ratio.
Compounds meeting the initial screening criteria were then subjected to in vivo testing.

[10] = target: T1, 5-HT3 (Homo sapiens, UniProt P46098); experiment: Target binding 5-HT3
T1 sequence (P46098 24-478): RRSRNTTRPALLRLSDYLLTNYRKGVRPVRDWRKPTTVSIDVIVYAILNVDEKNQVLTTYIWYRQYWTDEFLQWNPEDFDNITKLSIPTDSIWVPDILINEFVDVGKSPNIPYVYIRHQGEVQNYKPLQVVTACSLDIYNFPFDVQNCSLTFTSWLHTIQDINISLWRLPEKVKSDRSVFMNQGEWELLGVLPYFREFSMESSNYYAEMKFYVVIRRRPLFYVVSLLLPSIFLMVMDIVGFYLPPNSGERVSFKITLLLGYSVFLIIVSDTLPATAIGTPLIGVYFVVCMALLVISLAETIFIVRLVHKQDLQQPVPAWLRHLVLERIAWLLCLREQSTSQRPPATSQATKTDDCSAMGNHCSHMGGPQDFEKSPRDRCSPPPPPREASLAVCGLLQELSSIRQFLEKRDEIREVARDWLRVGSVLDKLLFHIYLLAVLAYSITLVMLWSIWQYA

[11] = system: AD model mice; experiment: Oral efficacy studies in mice; format: in vivo
Source text: Thus, C41 was identified as a good new chemical entity (NCE) based on the testing. In particular C41 in vitro and in vivo profile met the advancement criteria in SH-SYSY and CHO-7W in vitro screens.

[12] = S9 stability, rat; format: in vitro ADME

Chain of CYP3A4 (P08684 whole entry): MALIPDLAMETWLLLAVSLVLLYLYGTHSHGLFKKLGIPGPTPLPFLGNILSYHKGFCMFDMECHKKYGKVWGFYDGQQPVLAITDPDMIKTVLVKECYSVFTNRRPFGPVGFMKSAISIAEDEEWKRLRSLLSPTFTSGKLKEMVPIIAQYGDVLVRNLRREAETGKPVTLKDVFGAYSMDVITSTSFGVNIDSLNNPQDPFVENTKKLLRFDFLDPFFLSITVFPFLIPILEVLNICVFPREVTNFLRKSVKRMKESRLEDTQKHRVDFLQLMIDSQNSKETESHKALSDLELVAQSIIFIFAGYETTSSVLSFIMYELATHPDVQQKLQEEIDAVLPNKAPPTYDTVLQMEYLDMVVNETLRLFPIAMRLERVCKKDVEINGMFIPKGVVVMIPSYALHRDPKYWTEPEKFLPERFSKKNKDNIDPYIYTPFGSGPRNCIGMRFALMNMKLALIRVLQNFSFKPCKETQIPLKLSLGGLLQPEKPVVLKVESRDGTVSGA
Chain of hERG receptor (Q12809 whole entry): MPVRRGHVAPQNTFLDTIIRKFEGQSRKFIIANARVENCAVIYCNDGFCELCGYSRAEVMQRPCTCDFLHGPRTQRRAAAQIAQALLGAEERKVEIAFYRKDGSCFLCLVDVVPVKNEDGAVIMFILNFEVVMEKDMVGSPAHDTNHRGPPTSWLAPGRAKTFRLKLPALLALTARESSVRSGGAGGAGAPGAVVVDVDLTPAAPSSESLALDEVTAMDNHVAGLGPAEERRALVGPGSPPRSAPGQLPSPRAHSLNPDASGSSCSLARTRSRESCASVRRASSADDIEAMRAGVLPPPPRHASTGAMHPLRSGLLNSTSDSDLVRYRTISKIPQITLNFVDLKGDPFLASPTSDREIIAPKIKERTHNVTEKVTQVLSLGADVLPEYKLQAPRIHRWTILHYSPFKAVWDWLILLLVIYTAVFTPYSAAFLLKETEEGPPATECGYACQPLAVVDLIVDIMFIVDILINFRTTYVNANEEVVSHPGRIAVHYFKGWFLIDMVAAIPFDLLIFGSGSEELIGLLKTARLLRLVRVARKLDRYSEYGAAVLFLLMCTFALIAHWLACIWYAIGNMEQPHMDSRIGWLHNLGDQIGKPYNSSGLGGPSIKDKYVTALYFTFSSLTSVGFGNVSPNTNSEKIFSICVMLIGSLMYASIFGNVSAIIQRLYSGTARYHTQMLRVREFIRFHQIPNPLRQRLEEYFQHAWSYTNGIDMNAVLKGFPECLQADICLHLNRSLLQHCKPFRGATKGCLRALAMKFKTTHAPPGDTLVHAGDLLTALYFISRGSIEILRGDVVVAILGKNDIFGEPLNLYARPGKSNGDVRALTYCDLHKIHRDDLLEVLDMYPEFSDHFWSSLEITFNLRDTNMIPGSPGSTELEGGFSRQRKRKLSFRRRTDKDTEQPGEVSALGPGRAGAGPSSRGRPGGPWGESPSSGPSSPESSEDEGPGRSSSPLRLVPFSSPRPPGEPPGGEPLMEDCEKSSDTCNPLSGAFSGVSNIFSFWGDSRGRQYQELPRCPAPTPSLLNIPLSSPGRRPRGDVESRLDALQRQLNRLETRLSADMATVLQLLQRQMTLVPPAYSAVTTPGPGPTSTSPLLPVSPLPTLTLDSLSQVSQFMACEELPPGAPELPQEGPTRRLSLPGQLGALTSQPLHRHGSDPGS
Chain of α7 (P36544 23-502): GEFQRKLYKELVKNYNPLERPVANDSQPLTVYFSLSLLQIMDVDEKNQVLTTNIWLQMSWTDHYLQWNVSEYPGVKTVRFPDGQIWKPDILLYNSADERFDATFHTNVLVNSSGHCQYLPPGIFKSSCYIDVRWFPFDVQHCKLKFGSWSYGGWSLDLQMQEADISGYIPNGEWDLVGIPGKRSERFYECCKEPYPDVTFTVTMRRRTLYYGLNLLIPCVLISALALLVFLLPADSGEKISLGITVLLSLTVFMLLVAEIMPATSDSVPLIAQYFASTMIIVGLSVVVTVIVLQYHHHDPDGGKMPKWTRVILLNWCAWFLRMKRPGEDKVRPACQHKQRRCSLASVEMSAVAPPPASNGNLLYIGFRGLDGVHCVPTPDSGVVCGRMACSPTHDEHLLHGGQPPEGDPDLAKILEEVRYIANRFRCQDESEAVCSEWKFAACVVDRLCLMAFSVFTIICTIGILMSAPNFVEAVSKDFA

CN1[C@@H]2CC[C@H]1C[C@@H](OC(=O)c1c[nH]c3cc(F)ccc13)C2 [Compound C41, (1R,3R,5S)-8-methyl-8-azabicyclo[3.2.1]octan-3-yl 6-fluoro-1H-indole-3-carboxylate]
pIC50 [1]: < 4.52 | inhibition at 10 µM ([1]; CYP3A4 midazolam inhibition): 3.1% | inhibition at 30 µM ([1]; CYP3A4 midazolam inhibition): 3.8% | inhibition at 10 µM ([1]; CYP3A4 testosterone inhibition): 5.2% | inhibition at 30 µM ([1]; CYP3A4 testosterone inhibition): 2.5% | binding to hERG receptor [2]: no binding | binding to muscarinic acetylcholine receptors [3]: only weak binding; also recorded: profile. Some | Primary Screen (SH-SY5Y) sAPPα [4]: ↑~20% | Target α7 [5]: 1100 nM | Aβ40 [6]: trend for Aβ40 and 42 to decrease | Aβ42 [6]: trend for Aβ40 and 42 to decrease | novel location recognition [6]: some improvement | novel object recognition [6]: significant improvement | p-Tau/Tau ratio [6]: significantly decreased | half-life [7]: 40.1 min | Secondary Screen (CHO-7W) sAPPα ([8]; ↑ increase): ↑>20% | Secondary Screen (CHO-7W) sAppα/Aβ ([8]; ↑ increase of ratio): ↑>50% | Secondary Screen (CHO-7W) Aβ1-42 ([8]; ↓ decrease): ↓>20% | Aβ1-42 levels in vivo [9]: did not change | Aβ40/42 ratio in vivo [9]: not changed | sAPPα in vivo [9]: increased significantly | sAPPα/Aβ1-42 ratio in vivo [9]: not increased | sAPPα/sAPPβ ratio in vivo [9]: significantly greater increase with C41 than F03 | sAPPβ in vivo [9]: greater decrease in sAPPβ than F03 | short-term working object memory (novel object preference) [9]: approximately 85 % of NTg level | spatial memory, novel location recognition test [9]: improved spatial memory | pKd [10]: ~8.52 | Target 5-HT3 ([10]; target binding): 5 nM | efficacy in dose-response studies ([11]; mice): Efficacy was seen | efficacy in 4-week standard oral study ([11]; mice, oral, 4 weeks): Efficacy was seen | efficacy in 12-week study ([11]; old AD model mice with advanced pathology): efficacy was seen | half-life [12]: 21.8 min
